Here are results for four compounds from PMC12263422, “Cryo-EM structure of the human THIK-1 K2P K^+ channel reveals a lower Y gate regulated by lipids and anesthetics” (Nature Structural & Molecular Biology, 2025).

The experiment has as its target T1, THIK-1 Y273A (Homo sapiens, UniProt Q9HB14, Y273A).
T1 construct: expressed in transfected cells; host or cells: Xenopus oocytes (mRNA injection)
T1 sequence (Q9HB14 1-408 Y273A): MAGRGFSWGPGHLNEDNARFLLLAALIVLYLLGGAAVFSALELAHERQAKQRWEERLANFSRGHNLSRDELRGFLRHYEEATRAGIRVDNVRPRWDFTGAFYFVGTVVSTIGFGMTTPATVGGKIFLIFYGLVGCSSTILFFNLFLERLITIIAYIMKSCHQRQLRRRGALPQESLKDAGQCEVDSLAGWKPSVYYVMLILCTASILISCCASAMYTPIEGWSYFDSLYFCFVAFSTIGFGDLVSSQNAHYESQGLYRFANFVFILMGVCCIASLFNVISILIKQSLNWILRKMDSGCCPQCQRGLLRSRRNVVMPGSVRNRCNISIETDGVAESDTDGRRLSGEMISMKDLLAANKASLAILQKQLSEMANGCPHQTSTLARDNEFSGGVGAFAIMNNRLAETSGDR
Put plainly: Inside-out excised patch recordings, oocytes, THIK-1 Y273A mutant. Format: cell-based. On the set-up: Halothane inhibition: concentration or dose not given beside the values. The source says:
Human K2P13.1 THIK-1 (GenBank accession number: NM_022054) and human K2P12.1 THIK-2 (NM_022055.1) were used in this study. For functional expression studies, the respective K^+ channel subtype coding sequences were subcloned into the oocyte expression vector pSGEM or the dual-purpose expression vector pFAW[41] and verified by sequencing. All mutant channels were obtained by site-directed mutagenesis and verified by sequencing. To increase surface expression and macroscopic currents, measurements of THIK-2 channels used a mutated ER retention motif, (R11A R12A R14A R15A R16A; THIK-2*)[20]. Vector DNA was linearized with NheI or MluI, and mRNA was synthesized in vitro using the SP6 or T7 AmpliCap Max High Yield Message Maker Kit (Cellscript, USA) or HiScribe T7 ARCA mRNA Kit (New England Biolabs).
Two-electrode voltage–clamp (TEVC) studies were performed in Xenopus oocytes. All animal use conformed to the Guide for the Care and Use of Laboratory Animals (NIH Publication 85–23), and all experiments using Xenopus toads were approved by the local ethics panels. Oocytes were stored at 17 °C in ND96 recording solution composed of (in mM): 96 NaCl, 2 KCl, 1.8 CaCl2, 1 MgCl2, 5 HEPES (pH 7.5 adjusted with NaOH and HCl), supplemented with Na-pyruvate (275 mg L^–1), theophylline (90 mg L^–1) and gentamicin (50 mg L^–1). Oocytes were injected with 1 ng mRNA for WT or mutant channels, and were incubated for 24–48 h at 17 °C. Two-electrode voltage clamp recordings were then performed as previously described[42],[43]. For macroscopic patch–clamp measurements, oocytes were obtained as described above incubated at 17 °C in a solution containing (mM): 54 NaCl, 30 KCl, 2.4 NaHCO3, 0.82 MgSO4 ×7 H2O, 0.41 CaCl2, 0.33 Ca(NO3)2 ×4 H2O and 7.5 TRIS (pH 7.4 adjusted with NaOH and HCl) for 1–4 days before use. Excised patch recordings in inside-out configuration conditions were performed at room temperature. […] Intracellular bath solutions and compounds were applied to the cytoplasmic side of excised patches for the various K^+ channels through a gravity flow multi-barrel pipette system. The intracellular solution had the following composition (in mM): 120 KCl, 10 HEPES, 2 EGTA and 1 pyrophosphate (pH adjusted with KOH and HCl). Currents were recorded with an EPC10 amplifier (HEKA Electronics) and sampled at 10 kHz or higher, with filtering set to 3 kHz (–3 dB) or higher, as appropriate for sampling rate. For measurements of GPCR activation, whole-cell currents were recorded for THIK-1 in transiently transfected HEK-293 cells. Cells were stimulated by a ramp protocol between −100 and +60 mV (holding potential, −80 mV). The pipette solution was composed of (in mM): 140 KCl, 2 MgCl2, 1 CaCl2, 2.5 EGTA and 10 HEPES (pH 7.3 adjusted with KOH and HCl). The extracellular bath solution had the following composition (in mM): 135 NaCl, 5 KCl, 2 MgCl2, 2 CaCl2, 10 glucose and 10 HEPES pH (pH 7.3 adjusted with NaOH and HCl). Oxotremorine M (Oxo-M) was added to extracellular bath solution to obtain the final concentration. Single-channel currents were recorded with an Axopatch 200B amplifier through a Digidata 1440A digitizer (Molecular Devices). Data were filtered at 2 kHz and recorded at a 200-kHz sampling rate with the program Clampex (Molecular Devices). Pipette solution and bath solution for cell-attached recordings contained (in mM): 140 KCl, 2 MgCl2, 1 CaCl2 and 10 HEPES (pH 7.4 adjusted with KOH and HCl). For inside-out recordings, the bath solution contained (in mM): 140 KCl, 2 MgCl2, 1 CaCl2 and 10 HEPES (pH 7.2 adjusted with KOH and HCl). All experiments were conducted at room temperature.
TPenA, linoleic acid, L-α-phosphatidylinositol 4,5-bisphosphate (brain PI(4,5)P2, PIP2) (Sigma-Aldrich and Merck) and oleoyl-CoA (LC-CoA 18:1) (Avanti Polar Lipids) were prepared as stocks (1–100 mM) in DMSO, stored at −80 °C and diluted to the final concentration in the intracellular recording solution. Oxo-M (Tocris Bioscience,) was prepared as 50 mM stock in H2O. […]

Values joined by “and” are separate entries in the source; they are usually repeats but may differ in a detail not shown here. Equal entries are not always repeated.

As to `CCCCC[N+](CCCCC)(CCCCC)CCCCC` [TPenA, tetrapentylammonium], the Normalized currents came to 1.00 (TPenA 0.1 µM, THIK-1 Y273A); 0.96 (TPenA 1 µM, THIK-1 Y273A); 0.84 (TPenA 4 µM, THIK-1 Y273A); 0.65 (TPenA 15.6 µM, THIK-1 Y273A); 0.41 (TPenA 62.5 µM, THIK-1 Y273A); 0.19 (TPenA 250 µM, THIK-1 Y273A). Further, the Normalized currents reads like this: (TPenA 1000 µM, THIK-1 Y273A) 0.07; (TPenA 4000 µM, THIK-1 Y273A) 0.03. For the same compound, the “τ of 1 mM TPenA block” value (Y273A, individual recordings) is 0.054 s and 0.134 s and 0.071 s and 0.075 s and 0.076 s and 0.081 s and 0.059 s and 0.121 s and 0.057 s and 0.060 s; the “τ of 1 mM TPenA block” value (Y273A, mean) is given as 0.08 s. Further, the “τ of 1 mM TPenA release” value is, setting by setting: (Y273A, individual recordings) 0.946 s and 0.858 s and 0.474 s and 1.777 s and 0.915 s and 1.232 s and 0.747 s and 0.935 s and 0.998 s and 1.301 s; (Y273A, mean) 1.02 s.
For `FCOC(C(F)(F)F)C(F)(F)F` [Sevoflurane, sevoflurane], under “0.24 mM Sevoflurane, Y273A, individual recordings”, the “Inhibition (%)” value was 39.37% and 26.75% and 26.20% and 15.99% and 28.93% and 17.93% and 28.11%. Where the note is “0.24 mM Sevoflurane, Y273A, mean”, this compound yielded an inhibition at 240 µM of 26.2%. The inhibition at 23 µM (THIK-1 Y273A, 0.023 mM sevoflurane) stood at 6.96%. The same compound displayed an inhibition at 47 µM (THIK-1 Y273A, 0.047 mM sevoflurane) of 10.4%. Besides, for the setting “THIK-1 Y273A, 0.468 mM sevoflurane”, testing at 468 µM gave an inhibition of 38.6%. For the setting “THIK-1 Y273A, 2.34 mM sevoflurane”, the inhibition at 2340 µM was 62.5%.
As for `FC(F)(F)C(Cl)Br` (stereo not drawn) [halothane], under “3.0 mM halothane, Y273A, individual recordings”, the “Inhibition (%)” value was 24.640% and 18.199% and 20.441% and 32.359% and 23.062% and 35.325% and 35.762% and 32.640% and 40.661% and 24.150% and 21.311% and 24.444% and 21.407% and 27.084%. For the setting “3.0 mM halothane, Y273A, mean”, this compound returned an inhibition at 3000 µM of 27.2%. Also, the Halothane inhibition by setting is: (THIK-1 Y273A, 4 K+ ex., individual recordings) 48.800% and 50.390% and 50.850% and 54.290% and 50.150% and 44.140% and 43.970% and 46.310% and 43.270% and 42.110%; (THIK-1 Y273A, 4 K+ ex., mean) 47.43%; (THIK-1 Y273A, 120 K+ ex., individual recordings) 50.140% and 54.850% and 53.810% and 41.990% and 54.110% and 49.130% and 50.870% and 49.910% and 52.660%; (THIK-1 Y273A, 120 K+ ex., mean) 50.83%.
In the case of `FC(F)OC(Cl)C(F)(F)F` (stereo not drawn) [Isoflurane, isoflurane], for the setting “4.9 mM Isoflurane, Y273A, individual recordings”, the “Inhibition (%)” value is 36.141% and 64.534% and 64.029% and 67.231% and 69.534% and 60.746% and 65.223% and 43.937% and 15.847% and 38.113% and 40.962% and 42.936%. The inhibition at 242 µM (isoflurane 0.242 mM, THIK-1 Y273A) turned out to be 9.07%. For the setting “isoflurane 0.485 mM, THIK-1 Y273A”, this compound came in with an inhibition at 485 µM of 17.7%. In addition, for the setting “isoflurane 2.42 mM, THIK-1 Y273A”, the inhibition at 2420 µM was 30.9%. The compound also yielded an inhibition at 4850 µM (isoflurane 4.85 mM, THIK-1 Y273A) of 50.8%. The compound further gave an inhibition at 24200 µM (isoflurane 24.2 mM, THIK-1 Y273A) of 75%.

In general, inhibition refers to the relative decrease from the control value, in per cent.
